Like-named read-outs stand apart in the source and are kept apart here.
What was measured:
Assay in all cases: Glasshouse assay for herbicidal activity (pre- and post-emergence), percentage phytotoxicity
Format in all cases: in vivo
[1] = tested on: Alopecurus myosuroides (ALOMY); conditions: Alopecurus myosuroides
Summary of the method: (§1)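 Herbicide was applied to potted plants sown in standard soil, one day after sowing for PRE and after about 12 days for POST. Visual percentage damage ratings followed at 15 DAA (POST) and 20 DAA (PRE).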

Avena fatua (AVEFA) = conditions: Avena fatua
Summary of the method: as §1

[2] = tested on: Echinochloa crus-galli (ECHCG); conditions: Echinochloa crus-galli
Summary of the method: as §1

Lolium perenne (LOLPE) = conditions: Lolium perenne
Summary of the method: as §1

[3] = post-emergence, 360 h, 250 g/ha, post-emergence, 15 DAA, visual assessment (100%=total damage, 0%=no damage), read-out: Post-emergence herbicidal activity (percentage phytotoxicity) ALOMY POST
[4] = pre-emergence, 480 h, 250 g/ha, pre-emergence, 20 DAA, visual assessment (100%=total damage, 0%=no damage), read-out: Pre-emergence herbicidal activity (percentage phytotoxicity) ALOMY PRE
[5] = post-emergence, 360 h, 250 g/ha, post-emergence, 15 DAA, visual assessment (100%=total damage, 0%=no damage), read-out: Post-emergence herbicidal activity (percentage phytotoxicity) AVEFA POST
[6] = pre-emergence, 480 h, 250 g/ha, pre-emergence, 20 DAA, visual assessment (100%=total damage, 0%=no damage), read-out: Pre-emergence herbicidal activity (percentage phytotoxicity) AVEFA PRE
[7] = post-emergence, 360 h, 250 g/ha, post-emergence, 15 DAA, visual assessment (100%=total damage, 0%=no damage), read-out: Post-emergence herbicidal activity (percentage phytotoxicity) ECHCG POST
[8] = pre-emergence, 480 h, 250 g/ha, pre-emergence, 20 DAA, visual assessment (100%=total damage, 0%=no damage), read-out: Pre-emergence herbicidal activity (percentage phytotoxicity) ECHCG PRE
[9] = post-emergence, 360 h, 250 g/ha, post-emergence, 15 DAA, visual assessment (100%=total damage, 0%=no damage), read-out: Post-emergence herbicidal activity (percentage phytotoxicity) LOLPE POST
[10] = pre-emergence, 480 h, 250 g/ha, pre-emergence, 20 DAA, visual assessment (100%=total damage, 0%=no damage), read-out: Pre-emergence herbicidal activity (percentage phytotoxicity) LOLPE PRE

C/C=C/CNC(=O)CC1CC(=O)C(c2c(C)cc(C)cc2C)C1=O (stereo not shown) [Compound B47]
pest or weed control at 250 g/ha [1, 3]: 90% | pest or weed control at 250 g/ha [1, 4]: 90% | pest or weed control at 250 g/ha (Avena fatua (AVEFA); [5]): 80% | pest or weed control at 250 g/ha (Avena fatua (AVEFA); [6]): 60% | pest or weed control at 250 g/ha [2, 7]: 90% | pest or weed control at 250 g/ha [2, 8]: 90% | pest or weed control at 250 g/ha (Lolium perenne (LOLPE); [9]): 90% | pest or weed control at 250 g/ha (Lolium perenne (LOLPE); [10]): 100%

CCCCCNC(=O)CC1CC(=O)C(c2c(C)cc(C)cc2C)C1=O (stereo not shown) [Compound A177]
pest or weed control at 250 g/ha ([1]; post-emergence, 360 h, post-emergence, 250 g/ha, 15 DAA, visual score (100%=total damage; 0%=no damage), read-out: ALOMY POST herbicidal activity (percentage phytotoxicity)): 80% | pest or weed control at 250 g/ha ([1]; pre-emergence, 480 h, pre-emergence, 250 g/ha, 20 DAA, visual score (100%=total damage; 0%=no damage), read-out: ALOMY PRE herbicidal activity (percentage phytotoxicity)): 100% | pest or weed control at 250 g/ha (Avena fatua (AVEFA); post-emergence, 360 h, post-emergence, 250 g/ha, 15 DAA, visual score (100%=total damage; 0%=no damage), read-out: AVEFA POST herbicidal activity (percentage phytotoxicity)): 80% | pest or weed control at 250 g/ha (Avena fatua (AVEFA); pre-emergence, 480 h, pre-emergence, 250 g/ha, 20 DAA, visual score (100%=total damage; 0%=no damage), read-out: AVEFA PRE herbicidal activity (percentage phytotoxicity)): 60% | pest or weed control at 250 g/ha ([2]; post-emergence, 360 h, post-emergence, 250 g/ha, 15 DAA, visual score (100%=total damage; 0%=no damage), read-out: ECHCG POST herbicidal activity (percentage phytotoxicity)): 90% | pest or weed control at 250 g/ha ([2]; pre-emergence, 480 h, pre-emergence, 250 g/ha, 20 DAA, visual score (100%=total damage; 0%=no damage), read-out: ECHCG PRE herbicidal activity (percentage phytotoxicity)): 90% | pest or weed control at 250 g/ha (Lolium perenne (LOLPE); post-emergence, 360 h, post-emergence, 250 g/ha, 15 DAA, visual score (100%=total damage; 0%=no damage), read-out: LOLPE POST herbicidal activity (percentage phytotoxicity)): 80% | pest or weed control at 250 g/ha (Lolium perenne (LOLPE); pre-emergence, 480 h, pre-emergence, 250 g/ha, 20 DAA, visual score (100%=total damage; 0%=no damage), read-out: LOLPE PRE herbicidal activity (percentage phytotoxicity)): 100%

Cc1cc(-c2ncc(F)cc2F)cc(C)c1C1C(=O)CC(CC(=O)NCc2ccc(C(F)(F)F)cc2)C1=O (stereo not shown) [Compound B89]
pest or weed control at 250 g/ha [1, 3]: 100% | pest or weed control at 250 g/ha [1, 4]: 90% | pest or weed control at 250 g/ha (Avena fatua (AVEFA); [5]): 100% | pest or weed control at 250 g/ha (Avena fatua (AVEFA); [6]): 60% | pest or weed control at 250 g/ha [2, 7]: 100% | pest or weed control at 250 g/ha [2, 8]: 100% | pest or weed control at 250 g/ha (Lolium perenne (LOLPE); [9]): 100% | pest or weed control at 250 g/ha (Lolium perenne (LOLPE); [10]): 90%

Cc1cnc(CNC(=O)CC2CC(=O)C(c3c(C)cc(-c4ncc(Cl)cc4F)cc3C)C2=O)s1 (stereo not shown) [Compound A123]
pest or weed control at 250 g/ha ([1]; post-emergence, 360 h, Rate 250 g/ha, post-emergence, assessed visually 15 DAA, 100%=total damage, 0%=no damage, read-out: Post-emergence herbicidal activity (percentage phytotoxicity) ALOMY POST): 80% | pest or weed control at 250 g/ha ([1]; pre-emergence, 480 h, Rate 250 g/ha, pre-emergence, assessed visually 20 DAA, 100%=total damage, 0%=no damage, read-out: Pre-emergence herbicidal activity (percentage phytotoxicity) ALOMY PRE): 60% | pest or weed control at 250 g/ha (Avena fatua (AVEFA); post-emergence, 360 h, Rate 250 g/ha, post-emergence, assessed visually 15 DAA, 100%=total damage, 0%=no damage, read-out: Post-emergence herbicidal activity (percentage phytotoxicity) AVEFA POST): 80% | pest or weed control at 250 g/ha (Avena fatua (AVEFA); pre-emergence, 480 h, Rate 250 g/ha, pre-emergence, assessed visually 20 DAA, 100%=total damage, 0%=no damage, read-out: Pre-emergence herbicidal activity (percentage phytotoxicity) AVEFA PRE): 70% | pest or weed control at 250 g/ha ([2]; post-emergence, 360 h, Rate 250 g/ha, post-emergence, assessed visually 15 DAA, 100%=total damage, 0%=no damage, read-out: Post-emergence herbicidal activity (percentage phytotoxicity) ECHCG POST): 100% | pest or weed control at 250 g/ha ([2]; pre-emergence, 480 h, Rate 250 g/ha, pre-emergence, assessed visually 20 DAA, 100%=total damage, 0%=no damage, read-out: Pre-emergence herbicidal activity (percentage phytotoxicity) ECHCG PRE): 90% | pest or weed control at 250 g/ha (Lolium perenne (LOLPE); post-emergence, 360 h, Rate 250 g/ha, post-emergence, assessed visually 15 DAA, 100%=total damage, 0%=no damage, read-out: Post-emergence herbicidal activity (percentage phytotoxicity) LOLPE POST): 90% | pest or weed control at 250 g/ha (Lolium perenne (LOLPE); pre-emergence, 480 h, Rate 250 g/ha, pre-emergence, assessed visually 20 DAA, 100%=total damage, 0%=no damage, read-out: Pre-emergence herbicidal activity (percentage phytotoxicity) LOLPE PRE): 80%

Cc1cc(-c2ccc(F)cn2)cc(C)c1C1C(=O)CC(CC(=O)NC/C=C/Cl)C1=O (stereo not shown) [Compound B400]
pest or weed control at 250 g/ha ([1]; post-emergence, 360 h, Rate 250 g/ha, post-emergence, visual assessment 15 DAA, 100%=total damage, 0%=no damage, read-out: Post-emergence herbicidal activity (percentage phytotoxicity) ALOMY POST): 100% | pest or weed control at 250 g/ha ([1]; pre-emergence, 480 h, Rate 250 g/ha, pre-emergence, visual assessment 20 DAA, 100%=total damage, 0%=no damage, read-out: Pre-emergence herbicidal activity (percentage phytotoxicity) ALOMY PRE): 100% | pest or weed control at 250 g/ha (Avena fatua (AVEFA); post-emergence, 360 h, Rate 250 g/ha, post-emergence, visual assessment 15 DAA, 100%=total damage, 0%=no damage, read-out: Post-emergence herbicidal activity (percentage phytotoxicity) AVEFA POST): 100% | pest or weed control at 250 g/ha (Avena fatua (AVEFA); pre-emergence, 480 h, Rate 250 g/ha, pre-emergence, visual assessment 20 DAA, 100%=total damage, 0%=no damage, read-out: Pre-emergence herbicidal activity (percentage phytotoxicity) AVEFA PRE): 100% | pest or weed control at 250 g/ha ([2]; post-emergence, 360 h, Rate 250 g/ha, post-emergence, visual assessment 15 DAA, 100%=total damage, 0%=no damage, read-out: Post-emergence herbicidal activity (percentage phytotoxicity) ECHCG POST): 100% | pest or weed control at 250 g/ha ([2]; pre-emergence, 480 h, Rate 250 g/ha, pre-emergence, visual assessment 20 DAA, 100%=total damage, 0%=no damage, read-out: Pre-emergence herbicidal activity (percentage phytotoxicity) ECHCG PRE): 100% | pest or weed control at 250 g/ha (Lolium perenne (LOLPE); post-emergence, 360 h, Rate 250 g/ha, post-emergence, visual assessment 15 DAA, 100%=total damage, 0%=no damage, read-out: Post-emergence herbicidal activity (percentage phytotoxicity) LOLPE POST): 90% | pest or weed control at 250 g/ha (Lolium perenne (LOLPE); pre-emergence, 480 h, Rate 250 g/ha, pre-emergence, visual assessment 20 DAA, 100%=total damage, 0%=no damage, read-out: Pre-emergence herbicidal activity (percentage phytotoxicity) LOLPE PRE): 100%
